ChEMBL document CHEMBL1201862, “PubChem BioAssay data set” (2004)
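These data come from cells grown in 96-well plates and exposed to compound for 48 hours at five concentrations. Abbreviation: GI50, concentration required for 50% inhibition of growth.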 Activity calls are given as the source filed them. No stated cut-off is given here; in the data, active = GI50 up to about 1.1 µM and inactive = higher.

Assays:
Assay in all cases: NCI tumour cell line growth inhibition, 48 h
[1] = test system: HCT-15
[2] = test system: SF-295
[3] = test system: UACC-62
[4] = test system: SF-268
[5] = test system: MDA-MB-231
[6] = test system: M14
[7] = test system: KM12
[8] = test system: UACC-257
[9] = test system: RXF 393
[10] = test system: BT-549
[11] = test system: A498
[12] = test system: OVCAR-8
[13] = test system: HT-29
[14] = test system: Hs-578T
[15] = test system: DU-145
[16] = test system: HOP-92
[17] = test system: HCT-116
[18] = test system: HCC 2998
[19] = test system: RPMI-8226
[20] = test system: SF-539
[21] = test system: SK-MEL-28
[22] = test system: SN12C
[23] = test system: Malme-3M
[24] = test system: OVCAR-4
[25] = test system: 786-0
[26] = test system: U-251
[27] = test system: COLO 205
[28] = test system: ACHN
[29] = test system: NCI-H522
[30] = test system: A549
[31] = test system: SNB-75
[32] = test system: OVCAR-5
[33] = test system: NCI-H226
[34] = test system: MDA-N
[35] = test system: EKVX
[36] = test system: MOLT-4
[37] = test system: NCI-H460
[38] = test system: NCI-H23
[39] = test system: HL-60
[40] = test system: CCRF-CEM
[41] = test system: SK-OV-3
[42] = test system: TK-10
[43] = test system: SW-620
[44] = test system: LOX IMVI
[45] = test system: CAKI-1
[46] = test system: HOP-62
[47] = test system: NCI/ADR-RES
[48] = test system: T47D
[49] = test system: MCF7
[50] = test system: MDA-MB-435
[51] = test system: SR
[52] = test system: K562
[53] = test system: SK-MEL-2
[54] = test system: UO-31
[55] = test system: OVCAR-3
[56] = test system: SK-MEL-5
[57] = test system: SNB-19
[58] = test system: PC-3
[59] = test system: IGROV-1

With `COc1ccc(-c2cn3c(n2)sc2cc(C)ccc23)cc1` the GI50 [1] was 38.5 µM, the GI50 [2] was 16.8 µM (inactive) and the GI50 [3] was 12.3 µM (inactive). For the same molecule, the GI50 [4] was 22.8 µM (inactive), the GI50 [5] was 15.5 µM (inactive) and the GI50 [6] was 26.1 µM (inactive). The GI50 [7] was 5.05 µM (inactive), the GI50 [8] was 3.9 µM (inactive) and the GI50 [9] was 16.6 µM (inactive). The GI50 [10] was 12.1 µM (inactive), the GI50 [11] was 21.3 µM (inactive) and the GI50 [12] was 8.17 µM (inactive). The GI50 [13] was 5.96 µM (inactive), the GI50 [14] was 18.2 µM (inactive) and the GI50 [15] was 23.2 µM (inactive). The GI50 [16] was 2.86 µM (inactive), the GI50 [17] was 13.2 µM (inactive) and the GI50 [18] was 12.5 µM (inactive). For the same molecule, the GI50 [19] was 3.93 µM (inactive), the GI50 [20] was 13.6 µM (inactive) and the GI50 [21] was 38.3 µM (inactive). For the same molecule, the GI50 [22] was 23.7 µM (inactive), the GI50 [23] was 37.8 µM (inactive) and the GI50 [24] was 10.9 µM (inactive). For the same molecule, the GI50 [25] was 18.3 µM (inactive), the GI50 [26] was 4.13 µM (inactive) and the GI50 [27] was 5.51 µM (inactive). The GI50 [28] was 28.4 µM (inactive), the GI50 [29] was 5.55 µM (inactive) and the GI50 [30] was 24.4 µM (inactive). For the same molecule, the GI50 [31] was 17.4 µM (inactive), the GI50 [32] was 43.2 µM (inactive) and the GI50 [33] was 15.2 µM (inactive). For the same molecule, the GI50 [34] was 5.08 µM (inactive), the GI50 [35] was 4.73 µM (inactive) and the GI50 [36] was 17.5 µM (inactive). The GI50 [37] was 20.7 µM (inactive), the GI50 [38] was 9.29 µM (inactive) and the GI50 [39] was 3.45 µM (inactive). The GI50 [40] was 19.8 µM (inactive), the GI50 [41] was 22.1 µM (inactive) and the GI50 [42] was 22.1 µM (inactive). The GI50 [43] was 25.8 µM (inactive), the GI50 [44] was 17.5 µM (inactive) and the GI50 [45] was 57.5 µM (inactive). The GI50 [46] was 20.2 µM (inactive), the GI50 [47] was > 100 µM (inactive) and the GI50 [48] was 3.33 µM (inactive). The GI50 [49] was 4.85 µM (inactive), the GI50 [50] was 5.28 µM (inactive) and the GI50 [51] was 4.86 µM (inactive). For the same molecule, the GI50 [52] was 3.64 µM (inactive), the GI50 [53] was 14.3 µM (inactive) and the GI50 [54] was 42.3 µM (inactive). For the same molecule, the GI50 [55] was 7.14 µM (inactive), the GI50 [56] was 3.65 µM (inactive) and the GI50 [57] was 12.5 µM (inactive). The GI50 [58] was 14.8 µM (inactive) and the GI50 [59] was 7.19 µM (inactive).

For `CCn1c2ccc(C(=O)CCCN3CCCCC3)cc2c2cc(C(=O)CCCN3CCCCC3)ccc21`, the GI50 [1] was 1.86 µM, the GI50 [2] was 2.43 µM (inactive) and the GI50 [3] was 23 µM (inactive). The GI50 [4] was 4.94 µM (inactive), the GI50 [5] was 1.83 µM (inactive) and the GI50 [6] was 2.04 µM (inactive). The GI50 [7] was 1.98 µM (inactive), the GI50 [8] was 1.9 µM (inactive) and the GI50 [9] was 2.63 µM (inactive). For the same molecule, the GI50 [10] was 16.9 µM (inactive), the GI50 [11] was 5.7 µM (inactive) and the GI50 [12] was 1.44 µM (inactive). The GI50 [13] was 1.39 µM (inactive), the GI50 [14] was 2.44 µM (inactive) and the GI50 [15] was 5.33 µM (inactive). The GI50 [16] was 10.4 µM (inactive), the GI50 [17] was 1.78 µM (inactive) and the GI50 [18] was 5.94 µM (inactive). For the same molecule, the GI50 [19] was 1.75 µM (inactive), the GI50 [20] was 1.77 µM (inactive) and the GI50 [21] was 19.3 µM (inactive). For the same molecule, the GI50 [22] was 4.16 µM (inactive), the GI50 [23] was 6.85 µM (inactive) and the GI50 [24] was 1.33 µM (inactive). The GI50 [25] was 0.938 µM (active), the GI50 [26] was 2.13 µM (inactive) and the GI50 [27] was 2.67 µM (inactive). For the same molecule, the GI50 [28] was 1.74 µM (inactive), the GI50 [29] was 1.56 µM (inactive) and the GI50 [30] was 1.81 µM (inactive). The GI50 [31] was 2.24 µM (inactive), the GI50 [32] was 6.95 µM (inactive) and the GI50 [33] was 11.9 µM (inactive). The GI50 [34] was 2.22 µM (inactive), the GI50 [35] was 4.84 µM (inactive) and the GI50 [36] was 0.524 µM (active). For the same molecule, the GI50 [37] was 0.998 µM (active), the GI50 [38] was 2.13 µM (inactive) and the GI50 [39] was 13.2 µM (inactive). For the same molecule, the GI50 [40] was 2.4 µM (inactive), the GI50 [41] was 3.43 µM (inactive) and the GI50 [42] was 2.91 µM (inactive). For the same molecule, the GI50 [43] was 1.01 µM (active), the GI50 [44] was 1.86 µM (inactive) and the GI50 [45] was 3.48 µM (inactive). The GI50 [46] was 3.3 µM (inactive), the GI50 [47] was 3.78 µM (inactive) and the GI50 [48] was 24.2 µM (inactive). For the same molecule, the GI50 [49] was 1.58 µM (inactive), the GI50 [50] was 1.72 µM (inactive) and the GI50 [51] was 2.45 µM (inactive). For the same molecule, the GI50 [52] was 2.97 µM (inactive), the GI50 [53] was 1.78 µM (inactive) and the GI50 [54] was 5.32 µM (inactive). The GI50 [55] was 2.11 µM (inactive), the GI50 [56] was 1.56 µM (inactive) and the GI50 [57] was 2.58 µM (inactive). The GI50 [58] was 2.13 µM (inactive) and the GI50 [59] was 2.08 µM (inactive).

With `COc1cc(CC(C)C(C)Cc2ccc(O)c(OC)c2)ccc1O` (configuration not stated) [DIHYDROGUAIARETIC ACID] the GI50 [1] was 20 µM, the GI50 [2] was 17.2 µM (inactive) and the GI50 [3] was 16.7 µM (inactive). The GI50 [4] was 15.7 µM (inactive), the GI50 [5] was 10.1 µM (inactive) and the GI50 [6] was 14.1 µM (inactive). The GI50 [7] was 14.7 µM (inactive), the GI50 [8] was 15.8 µM (inactive) and the GI50 [9] was 13.1 µM (inactive). The GI50 [10] was 15.1 µM (inactive), the GI50 [11] was 18.5 µM (inactive) and the GI50 [12] was 15.6 µM (inactive). The GI50 [13] was 22.5 µM (inactive), the GI50 [14] was 8.15 µM (inactive) and the GI50 [15] was 22.3 µM (inactive). For the same molecule, the GI50 [16] was 11.7 µM (inactive), the GI50 [17] was 17.4 µM (inactive) and the GI50 [18] was 18.5 µM (inactive). The GI50 [19] was 7.93 µM (inactive), the GI50 [20] was 31.8 µM (inactive) and the GI50 [21] was 21 µM (inactive). The GI50 [22] was 15.4 µM (inactive), the GI50 [23] was 13.1 µM (inactive) and the GI50 [24] was 20.1 µM (inactive). For the same molecule, the GI50 [25] was 19.9 µM (inactive), the GI50 [26] was 14.8 µM (inactive) and the GI50 [27] was > 50 µM (inactive). For the same molecule, the GI50 [28] was 13.1 µM (inactive), the GI50 [29] was 9.86 µM (inactive) and the GI50 [30] was 14.5 µM (inactive). For the same molecule, the GI50 [31] was 14.2 µM (inactive), the GI50 [32] was > 50 µM (inactive) and the GI50 [33] was 14.2 µM (inactive). For the same molecule, the GI50 [34] was 17.3 µM (inactive), the GI50 [35] was 15.5 µM (inactive) and the GI50 [36] was 9.29 µM (inactive). For the same molecule, the GI50 [37] was 14.5 µM (inactive), the GI50 [38] was 16.9 µM (inactive) and the GI50 [39] was 9.4 µM (inactive). For the same molecule, the GI50 [40] was 13.3 µM (inactive), the GI50 [41] was 20.9 µM (inactive) and the GI50 [42] was 34 µM (inactive). The GI50 [43] was 18.2 µM (inactive), the GI50 [44] was 11.5 µM (inactive) and the GI50 [45] was 16.9 µM (inactive). The GI50 [46] was 23.9 µM (inactive), the GI50 [47] was 16.2 µM (inactive) and the GI50 [48] was 16.3 µM (inactive). The GI50 [49] was 17.9 µM (inactive), the GI50 [50] was 13 µM (inactive) and the GI50 [51] was 9.2 µM (inactive). For the same molecule, the GI50 [52] was 15 µM (inactive), the GI50 [53] was 9.68 µM (inactive) and the GI50 [54] was 12.7 µM (inactive). For the same molecule, the GI50 [55] was 16 µM (inactive), the GI50 [56] was 8.55 µM (inactive) and the GI50 [57] was 21.8 µM (inactive). For the same molecule, the GI50 [58] was 10.8 µM (inactive) and the GI50 [59] was 12.7 µM (inactive).
